Results published in patent US20240025924A1, “HETEROCYCLE SUBSTITUTED KETONE DERIVATIVE, AND COMPOSITION AND MEDICINAL USE THEREOF” (SHANGHAI HAIYAN PHARMACEUTICAL TECHNOLOGY CO., LTD., priority 2021, published 2024).

Tests used:
SHP-2 enzyme = molecular target: T1, SHP-2 enzyme (Homo sapiens, UniProt Q06124); assay: Phosphatase activity assay (Homogeneous Full Length SHP-2 Assay Kit, DiFMUP substrate); assay type: biochemical; details: full length SHP-2 activated with 0.5 μM SHP-2 activating Peptide; 1 hour co-incubation; DiFMUP 50 μM, 30 min
T1 construct: Homogeneous Full Length SHP-2 Assay Kit (BPS Bioscience #79330); purchased BPS Bioscience 79330
T1 sequence (Q06124 1-593): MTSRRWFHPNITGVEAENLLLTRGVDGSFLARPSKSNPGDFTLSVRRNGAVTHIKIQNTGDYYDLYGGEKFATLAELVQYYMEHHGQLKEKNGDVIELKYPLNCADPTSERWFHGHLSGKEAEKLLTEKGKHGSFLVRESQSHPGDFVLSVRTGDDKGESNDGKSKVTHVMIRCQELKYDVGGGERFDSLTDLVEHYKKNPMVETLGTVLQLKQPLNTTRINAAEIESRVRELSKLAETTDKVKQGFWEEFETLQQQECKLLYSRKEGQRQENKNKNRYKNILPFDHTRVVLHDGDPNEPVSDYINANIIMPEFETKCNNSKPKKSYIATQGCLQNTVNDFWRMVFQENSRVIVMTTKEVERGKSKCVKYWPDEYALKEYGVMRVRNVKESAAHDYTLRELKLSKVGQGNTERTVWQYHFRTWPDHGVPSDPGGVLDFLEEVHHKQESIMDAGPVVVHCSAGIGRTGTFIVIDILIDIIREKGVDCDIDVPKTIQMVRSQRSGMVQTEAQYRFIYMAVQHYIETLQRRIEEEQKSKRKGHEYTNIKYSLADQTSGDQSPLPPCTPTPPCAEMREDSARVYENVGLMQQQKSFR
Experimental: IC50 values were assayed using Homogeneous Full Length SHP-2 Assay Kit (BPS Bioscience #79330), which uses 6,8-difluoro-4-methylumbelliferone phosphate (DiFMUP) as the reaction substrate. SHP2 enzyme solution (diluted to 0.04 ng/μL with 1*buffer) was mixed with 0.5 μM SHP-2 activating Peptide in a 1*buffer solution containing 2.5 mM DTT to activate PTP. At the same time, DMSO (0.1% (V/V)) or the compounds (concentration: 0.5 nM to 1 μM) were added, mixed and co-incubated for 1 hour. DiFMUP (50 μM, total reaction system volume of 20 μL) was added, and the reaction was started. After 30 min of incubation, the fluorescence intensity of the reaction system (excitation wavelength: 350 nm, emission wavelength: 460 nm) was measured by Tecan Infinite M1000.

MV-4-11 cell = assay: Cell proliferation assay (Cell Titer-Glo); assay type: cell-based; details: Homo sapiens, MV4-11, 96 h, inhibition of MV-4-11 cell proliferation; Cell Titer-Glo on day 4
Experimental: MV 411 cells (20000 cells/well) were inoculated and cultured in 96 (Corning #3916) well plates, and the medium was 80 μL/well (IMDM with 10% fetal bovine serum (FBS), Gibco #10099-141C). After 24 hours of incubation, 20 μL of the compounds of the present invention configured to different concentrations (DMSO final concentration of 0.1% (V/V)) were added. On day 4, 60 μL of Cell Titer-Glo (Promega #G7558) was added to each well and mixed at 80 rpm, 25° C., 15 min, and the fluorescence values were detected by Victor X5 (PE).

hERG potassium channel = molecular target: T2, hERG potassium channel (Homo sapiens, UniProt Q12809); assay: Inhibition of hERG potassium channel current, manual patch clamp in CHO cells stably expressing hERG; assay type: cell-based; details: whole-cell patch clamp, room temperature
T2 construct: expressed in transfected cells; host or cells: CHO (Chinese hamster ovary) cells stably expressing hERG
T2 sequence (Q12809 whole entry): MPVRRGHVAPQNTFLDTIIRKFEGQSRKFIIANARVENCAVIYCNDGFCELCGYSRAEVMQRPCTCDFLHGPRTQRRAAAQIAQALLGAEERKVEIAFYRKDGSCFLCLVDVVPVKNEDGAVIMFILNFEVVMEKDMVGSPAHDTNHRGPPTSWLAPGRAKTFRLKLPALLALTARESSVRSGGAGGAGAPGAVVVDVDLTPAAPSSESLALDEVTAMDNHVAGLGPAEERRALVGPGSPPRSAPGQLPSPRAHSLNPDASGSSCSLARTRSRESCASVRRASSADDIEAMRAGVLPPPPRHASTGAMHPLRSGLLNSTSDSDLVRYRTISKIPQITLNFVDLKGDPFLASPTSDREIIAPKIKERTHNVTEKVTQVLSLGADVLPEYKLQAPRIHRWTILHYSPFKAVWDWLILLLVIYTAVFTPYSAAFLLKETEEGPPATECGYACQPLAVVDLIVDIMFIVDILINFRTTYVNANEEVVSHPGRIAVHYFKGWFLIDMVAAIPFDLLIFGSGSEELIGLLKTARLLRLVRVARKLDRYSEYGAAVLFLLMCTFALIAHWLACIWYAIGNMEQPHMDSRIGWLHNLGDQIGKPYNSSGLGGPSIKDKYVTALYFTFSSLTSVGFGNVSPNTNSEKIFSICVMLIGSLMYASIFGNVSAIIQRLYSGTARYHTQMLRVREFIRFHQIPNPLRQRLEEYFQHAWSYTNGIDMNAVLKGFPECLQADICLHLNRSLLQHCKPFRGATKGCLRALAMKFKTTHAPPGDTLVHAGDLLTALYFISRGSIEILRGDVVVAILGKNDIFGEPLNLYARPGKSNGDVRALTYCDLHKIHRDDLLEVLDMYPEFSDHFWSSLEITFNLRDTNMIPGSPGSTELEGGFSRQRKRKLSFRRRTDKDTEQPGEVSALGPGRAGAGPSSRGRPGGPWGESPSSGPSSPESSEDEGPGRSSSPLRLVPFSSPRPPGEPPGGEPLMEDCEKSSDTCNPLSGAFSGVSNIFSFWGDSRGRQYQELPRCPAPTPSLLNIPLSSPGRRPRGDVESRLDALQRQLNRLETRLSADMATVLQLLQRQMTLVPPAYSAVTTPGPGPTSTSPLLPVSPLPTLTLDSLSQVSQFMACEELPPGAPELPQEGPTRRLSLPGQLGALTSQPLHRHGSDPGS
Experimental: The electrophysiological manual patch clamp method was used to test the effect of the compounds on the current of hERG potassium channel (human Ether-a-go-go Related Gene potassium channel).
CHO cells stably expressing hERG were cultured in a cell Petri dish having a diameter of 35 mm, placed in an incubator at 37° C. and with 5% CO2, and passaged every 48 hours at a ratio of 1:5. The culture medium formula was: 90% F12 (Invitrogen), 10% fetal bovine serum (Gibco), 100 μg/mL G418 (Invitrogen), and 100 μg/mL Hygromycin B (Invitrogen). On the day of the test, the cell culture medium was sucked away, and the cells were washed with extracellular fluid once. Then 0.25% Trypsin-EDTA (Invitrogen) solution was added, and the cells was digested at room temperature for 3-5 min. The digestive fluid was sucked away, and the cells were resuspended with extracellular fluid, and transferred to the experimental dish for electrophysiological recording.
On the day of test, the compounds were prepared using DMSO into mother solution with concentration of 20 mM, and then serial dilution with DMSO was performed three times, i.e., 10 μL of the solution was added to 20 μL of DMSO, then 10 μL of the serial diluted solution of the compounds in DMSO was added to 4990 μL of extracellular fluid, and 500 times of dilution was performed to obtain the final concentration to be tested.
The hERG potassium channel currents of CHO (Chinese hamster ovary) cells stably expressing hERG potassium channels were recorded using whole-cell patch clamp technique at room temperature. The glass microelectrodes were made from glass electrode blanks (BF150-86-10, Sutter) by pulling through a puller, and the tip resistance was about 2-5 MΩ after filling the electrode with the inner liquid. The glass microelectrodes could be connected to a patch clamp amplifier by inserting them into the amplifier probe. Clamp voltage and data recording were controlled and recorded by a computer using software pClamp 10 with a sampling frequency of 10 kHz and a filtering frequency of 2 kHz. After obtaining a whole-cell recording, the cell was clamped at −80 mV, and the step voltage inducing hERG potassium current (IhERG) was given a depolarizing voltage from −80 mV to +20 mV for 2 s, and repolarized to −50 mV for 1 s, then returning to −80 mV. This voltage stimulus was given every 10 s. After it is determined that the potassium hERG current was stable (for 1 min), the dosing process was initiated. The compounds were administered for at least 1 min at each tested concentration, and at least 2 cells (n≥2) were tested at each concentration.
Data analysis and processing were conducted using softwares pClamp 10, GraphPad Prism 5, and Excel. The degree of inhibitory activity of different compound concentrations on hERG potassium current (peak value of hERG tail current induced at −50 mV) was calculated using the following formula: Inhibition %=[1−(I/Io)]×100%. Among them, Inhibition % represents the percentage inhibition of the compound on hERG potassium current, and I and Io represent the amplitude of hERG potassium current after and before dosing, respectively.
IC50 of the compounds was calculated using software GraphPad Prism 5 by fitting the following equation: Y=Bottom+(Top−Bottom)/(1+10^(Log IC50−X)*HillSlope). Among them, X is the Log value of the detection concentration of test material, Y is the inhibition percentage at the corresponding concentration, and Bottom and Top are the minimum and maximum inhibition percentages, respectively.

[1] = system: human esophageal squamous carcinoma cell line KYSE-520; assay: KYSE-520 subcutaneous transplantation tumor model; assay type: in vivo; details: KYSE-520 subcutaneous tumor, female Balb/C nude mice, 10 mg/kg, PO, QD
Experimental: The human esophageal squamous carcinoma cell line KYSE-520 was cultured in RPMI 1640 containing 10% fetal bovine serum placed in a 37° C., 5% CO2 sterile incubator. The cells were passaged 2-3 times per week, digested with 0.25% trypsin-EDTA. After terminating the digestion with the above complete medium, the system was centrifugated at 1000 rpm for 5 min. The supernatant was discarded, and the cells were resuspended and passaged at a ratio of 1:3-1:5. Cells in logarithmic phase were collected, resuspended in serum-free RPMI 1640, counted and adjusted to the appropriate density.
KYSE-520 cells (3×10^6 cells/mouse) were inoculated into the right ventral dorsum of approximately 6- to 8-week-old female Balb/C nude mice. Then the tumors grew to an average volume of about 200 mm^3, the tumors were randomly grouped according to the tumor volume and body weight (n=8-10). Administration was started on the day of grouping and was performed once daily, defining the day of grouping as day 0. Tumor diameters were measured twice a week with vernier calipers, and tumor volume was calculated by the formula TV (mm^3)=0.5×a×b^2, with a and b representing the long and short diameters (in mm) of the tumors, respectively. When the average tumor volume of the control group was about 800 mm^3, the experiment was terminated. The tumor tissues were isolated and weighed to calculate the tumor weight proliferation rate with T/Cweight %=TWT/TWC %, and TWT and TWC represent the tumor weight of the administered group and the vehicle control group, respectively.

| IC50 (SHP-2 enzyme) | IC50 (MV-4-11 cell) | SMILES | IC50 (hERG potassium channel) | T/Cweight (tumor weight proliferation rate) [1] |
| --- | --- | --- | --- | --- |
| 4 nM | 25 nM | COc1ccc2c(c1)C(N)C1(CCN(c3cnc(C(=O)N4CCc5nc(N)sc5C4)c(N)n3)CC1)C2 (stereo not drawn) [Compound 82] | > 30000 nM |  |
| 6 nM | 253 nM | Nc1nc(N2CCC3(CC2)Cc2cc(F)ccc2C3N)nnc1C(=O)N1CCCn2nccc21 (stereo not drawn) [Compound 59] | > 30000 nM |  |
| 7 nM | 7 nM | Nc1nc2c(s1)CN(C(=O)c1ncc(N3CCC4(CC3)Cc3cc(F)ccc3C4N)nc1N)CC2(F)F (stereo not drawn) [Compound 114] | > 30000 nM | 39.69% |
| 10 nM |  | COc1ccc2c(c1)C(N)C1(CCN(c3cnc(C(=O)N4Cc5sc(N)nc5C(F)(F)C4)c(N)n3)CC1)C2 (stereo not drawn) [Compound 125] | > 30000 nM |  |
| 4 nM | 46 nM | Nc1ccc2c(n1)CCN2C(=O)c1ncc(N2CCC3(CC2)Cc2ccccc2C3N)nc1N (stereo not drawn) [Compound 60] |  | 44.62% |
| 3 nM | 8 nM | [2H]C1([2H])CN(C(=O)c2ncc(N3CCC4(CC3)Cc3ccccc3C4N)nc2N)Cc2sc(N)nc21 (stereo not drawn) [Compound 108] | > 30000 nM |  |
|  | 25 nM | [2H]C1([2H])CN(C(=O)c2ncc(N3CCC4(CC3)Cc3ccc(OC)cc3C4N)nc2N)Cc2sc(N)nc21 (stereo not drawn) [Compound 70] | > 30000 nM | 35.04% |
| 10 nM | 46 nM | Cc1cc2c(cc1C)C(N)C1(CCN(c3cnc(C(=O)N4CCc5nc(N)sc5C4)c(N)n3)CC1)C2 (stereo not drawn) [Compound 99] |  |  |
| 13 nM | 170 nM | N#Cc1cccc2c1CCCN2C(=O)c1ncc(N2CCC3(CC2)Cc2ccccc2C3N)nc1N (stereo not drawn) [Compound 15] |  |  |
| 5 nM | 142 nM | Nc1nc(N2CCC3(CC2)Cc2ccccc2C3N)cnc1C(=O)N1CCc2scnc2C1 (stereo not drawn) [Compound 19] |  |  |
| 3 nM | < 5 nM | Nc1nc2c(s1)CN(C(=O)c1ncc(N3CCC4(CC3)Cc3ccccc3[C@H]4N)nc1N)CC2(F)F [Compound 63] | > 30000 nM | 28.94% |
| 8 nM | 206 nM | CC1(C)CN(C(=O)c2ncc(N3CCC4(CC3)Cc3ccccc3C4N)nc2N)Cc2scnc21 (stereo not drawn) [Compound 54] |  |  |
| 6 nM |  | Nc1nc2c(s1)CN(C(=O)c1cnc(N3CCC4(CC3)Cc3ccccc3C4N)c(CO)n1)CC2(F)F (stereo not drawn) [Compound 126] | > 30000 nM |  |
| 3 nM | 58 nM | Nc1nc2c(cc1F)N(C(=O)c1ncc(N3CCC4(CC3)Cc3ccccc3C4N)nc1N)CC2 (stereo not drawn) [Compound 109] |  |  |
| 4 nM | 5 nM | Cc1nc(C(=O)N2Cc3sc(N)nc3C(F)(F)C2)c(N)nc1N1CCC2(CC1)Cc1ccccc1C2N (stereo not drawn) [Compound 65] |  |  |
